Source: patent publication US6114390A, “Amino acid derivatives, pharmaceutical compositions containing these compounds and processes for preparing them” (Karl Thomae GmbH, priority 1997, dated 2000)
Counter-ions that a name gives are not always drawn.

Assays:
human Y1 -receptor = target: T1, human Y1 -receptor (Homo sapiens, UniProt P25929); assay: Receptor binding to SK-N-MC cells ([125I]-Bolton-Hunter-NPY displacement); details: Table 1
T1 construct: endoge- nously expressing Y1 and Y2 receptors; endogenous in cells; host or cells: SK-N-MC (neuroblastoma) cells
T1 sequence (P25929 1-384): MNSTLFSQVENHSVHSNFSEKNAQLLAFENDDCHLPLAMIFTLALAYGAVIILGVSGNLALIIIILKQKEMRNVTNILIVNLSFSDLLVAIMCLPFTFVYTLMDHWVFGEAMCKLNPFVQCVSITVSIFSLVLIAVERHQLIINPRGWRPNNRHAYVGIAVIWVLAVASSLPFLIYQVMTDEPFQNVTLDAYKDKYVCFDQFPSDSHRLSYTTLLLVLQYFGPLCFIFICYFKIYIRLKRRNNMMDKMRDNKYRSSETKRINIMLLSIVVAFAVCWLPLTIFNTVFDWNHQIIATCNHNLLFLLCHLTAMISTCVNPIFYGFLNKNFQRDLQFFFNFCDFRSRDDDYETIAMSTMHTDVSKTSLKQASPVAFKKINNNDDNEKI
Experimental: Incubation is ended by centrifuging (10 minutes at 3000×gand […].). After washing once with PBS, the radioactivity of the pellet is measured in a gamma counter. […] The proportion of non-specific binding is defined as that radioactivity which is bound in the presence of 1 μM NPY. The IC50 values of the unlabelled test substances are determined graphically.

NPY [1] = assay: In vivo NPY-antagonism, NPY-induced blood pressure effects in pithed rats; details: Rattus norvegicus, iv, 1 min, NPY 10 μg/kg i.v., diastolic blood pressure, read-out: pIC50 (in vivo NPY-antagonism) (converted)
Experimental: After intubation of the trachea the animals are pithed by introducing a blunt needle through the eye into the spinal bone marrow channel. The animals are ventilated with oxygen-rich ambient air using a respiratory pump (20 strokes/minute). A cannula is inserted in the left carotid artery and the arterial blood pressure is measured using a pressure gauge (Braun Melsungen Combitrans) connected to a recording device. For injection purposes a catheter is placed in the left jugular vein through which heparin is administered (200 IU/kg, i.v.). After the blood pressure has been stabilised, the animals are given 2 bolus injections of NPY (10 μg/kg, i.v.) at intervals of 15 minutes. The average increase in diastolic blood pressure is taken as the reference value (=100%). The test substances are injected in increasing doses (4 to 6 doses) at intervals of 15 minutes. One minute after administration of the test substance, NPY is administered.
The antagonistic effect of the test substances is determined by plotting the percentage inhibition of the NPY-induced blood pressure effects against the logarithm of the concentration of active substance.

NPY [2] = assay: NPY-antagonism in vitro, isolated perfused rat kidney; details: NPY 1 μM bolus
Experimental: The abdomen is opened along the centre of the body and the left kidney is removed after the insertion of catheters in the renal artery, renal vein and ureter. The isolated kidney is immediately perfused with a modified Krebs-Ringer solution having the following composition (4 ml/minute):
The perfusion pressure is measured continuously using a pressure gauge. After a 60 minute stabilisation period the perfusion rate is adjusted so as to obtain a perfusion pressure of approximately 100 mm Hg. After a further 30 minutes the experiment is started and NPY (1μM) is administered as a bolus (0.1 ml) at 15 minute intervals until the pressure increase observed reaches a constant value. The compounds to be tested are given in the form of a continuous infusion over a period of 5 minutes and then NPY is injected. After a 30 minute wash-out period the next highest concentration of test substance is investigated. 3 to 5 different concentrations of the particular compound are tested on each occasion. Concentration/activity curves can be obtained by plotting the percentage inhibition of the NPY activity against the logarithm of the concentration (mol/1) of the compound.

NPY induced food intake = assay: Food intake in satiated rats after NPY application to the PVN; assay type: in vivo, rat
Experimental: For these determinations food intake was measured in normal satiated rats after application of NPY to the paraventricular nucleus (PVN) in the presence or absence of the test compound. […] The rats were individually housed in stainless steel cages where water and food were available ad libitum.
Rats under Pentobarbital anaesthesia were stereotactically implanted with a stainless steel double guide cannula targeted bilaterally at the PVNs. Stereotactic coordinates were: -1.8mm caudal, 0.5mm lateral to bregma and 7.0 mm below the skull surface. Injection cannulae extended the guide cannulae by 1 mm. Animals were allowed to recover from surgery for at least 10 days before being used in the experiments. Rats were handled and mock-injected during the […] recovery period to habituate them to the injection procedure.
Animals treated with both test compounds and NPY were treated first with the test compound. Then, 15 min. after PVN infusion of the test compound or vehicle (control) 1 μg of NPY was administered by PVN infusion.
Food intake was measured by placing preweighed pellets into the cages at the time of NPY injection. Pellets were removed from the cage at 2 h post NPY injection. The food intake of animals treated with test compound was calculated as a percentage of the food intake of control animals, i.e., animals treated with vehicle.

Molecule | IC50 (human Y1 -receptor) [nM] | other results
CCOC(=O)NC(=O)NCc1ccc(CNC(=O)[C@@H](CCCNC(=N)N)NC(=O)C(c2ccccc2)c2ccccc2)cc1 [H, (R)-N^2-(Diphenylacetyl)-N-[[4-(ethoxycarbonylamino-carbonylaminomethyl)phenyl]methyl]-argininamide-trifluor-acetate] | 1.1 | 
NC(=O)Cc1ccc(CNC(=O)[C@@H](CCCNc2ncc[nH]2)NC(=O)C(c2ccccc2)c2ccccc2)cc1 [S, (R)-N-[[4-(Aminocarbonylmethyl)phenyl]methyl]-N^2-(diphenylacetyl)-N^5-(1H-imidazol-2-yl)-ornithinamide-hydroiodide] | 28.3 | 
N=C(N)NCCC[C@@H](NC(=O)Cc1cc(Cl)c(N)c(Cl)c1)C(=O)NCc1ccc(CNC(N)=O)cc1 [R, (R)-N-[[4-(Aminocarbonylaminomethyl)phenyl]methyl]-N^2-[(4-amino-3,5-dichlorphenyl)acetyl]-argininamide-tri-fluoracetate] | 4.5 | 
CN(CCCC(NC(=O)C(c1ccccc1)c1ccccc1)C(=O)NCc1ccc(O)cc1)C(=N)N (racemic) [Compound E, (R,S)-N^5-(Aminoiminomethyl)-N^2-(diphenylacetyl)-N-[(4-hydroxyphenyl)methyl]-N^5-methyl-ornithinamide-hydrochloride] |  | ED50 (NPY [1]): 0.0135 µmol/kg; pIC50 (NPY-antagonism in vitro) (NPY [2]): 8.41
N=C(N)NCCC[C@@H](NC(=O)C(c1ccccc1)c1ccccc1)C(=O)OCc1ccc(CNC(N)=O)cc1 [M, (R)-N^2-(Diphenylacetyl)-arginine-[4-(aminocarbonylamino-methyl)phenyl]methylester-trifluoracetate] | 3 | 
CN(C)C(=O)NCc1ccc(CNC(=O)[C@@H](CCCNC(=N)N)NC(=O)C(c2ccccc2)c2ccccc2)cc1 [I, (R)-N-[[4-(Dimethylaminocarbonylaminomethyl)phenyl]methyl]-N^2-(diphenylacetyl)-argininamide-bis-(trifluor-acetate)] | 1.5 | 
CCOC(=O)NCc1ccc(CNC(=O)[C@@H](CCCNC(=N)N)NC(=O)C(c2ccccc2)c2ccccc2)cc1 [Q, (R)-N^2-(Diphenylacetyl)-N-[[4-(ethoxycarbonylamino-methyl)phenyl]methyl]-argininamide-trifluoracetate] | 4.25 | ED50 (NPY [1]): 0.162 µmol/kg; pIC50 (NPY-antagonism in vitro) (NPY [2]): 7.77
CN(Cc1ccc(CNC(N)=O)cc1)C(=O)[C@@H](CCCNC(=N)N)NC(=O)C(c1ccccc1)c1ccccc1 [P, (R)-N-[[4-(Aminocarbonylaminomethyl)phenyl]methyl]-N^2-(diphenylacetyl)-N-methyl-argininamide-acetate] | 3.5 | 
COC(=O)COc1ccc(C(C(=O)N[C@H](CCCNC(=N)N)C(=O)NCc2ccc(CNC(N)=O)cc2)c2ccc(O)cc2)cc1 (stereo partly drawn) [L] | 2.2 | 
N=C(N)NCCC[C@@H](NC(=O)CC(c1ccccc1)c1ccccc1)C(=O)NCc1ccc(CNC(N)=O)cc1 [O, (R)-N-[[4-(Aminocarbonylaminomethyl)phenyl]methyl]-N^2-(3,3-diphenyl-1-oxopropyl)-argininamide] | 3.45 | 
N=C(N)NCCC[C@@H](NC(=O)Nc1ccc(Cl)c(Cl)c1)C(=O)NCc1ccc(CNC(N)=O)cc1 [K] | 1.8 | 
N=C(N)NCCC[C@@H](NC(=O)C(c1ccc(O)cc1)c1ccc(O)cc1)C(=O)NCc1ccc(CNC(N)=O)cc1 [A] |  | % Inhibition of food intake (NPY induced food intake; 30 μg, PVN, 2 h, 1 μg NPY): 32%; Food intake following NPY application (NPY induced food intake; 30 μg, PVN, 2 h, 1 μg NPY): 2.40 g/animal
Neuropeptide Y [NPY, reference compound] |  | two hour food intake induced by NPY (NPY induced food intake; NPY 1 μg, versus 0.5 g with vehicle): 3.5 g
COc1ccc2cc(C(=O)N[C@H](CCCNC(=N)N)C(=O)NCc3ccc(CNC(N)=O)cc3)ccc2c1 [N, (R)-N-[[4-(Aminocarbonylaminomethyl)phenyl]methyl]-N^2-(6-methoxy-2-naphthoyl)-argininamide-acetate] | 3.4 | 
